Literature values as cited in patent publication US12390476B2, “Multiphasic contraceptive regimen for oral combination drug formulation of progestin and estrogen” (priority 2011, dated 2025).

Details: compared to gestodene, desogestrel and drospirenone

C#C[C@]1(O)CC[C@H]2[C@@H]3CCC4=CC(=O)CC[C@@H]4[C@H]3CC[C@@]21CC [LNG, levonorgestrel]
incidence of venous thromboembolism (VTE): lowest incidence
